{"source": "patent US20080027072A1", "about": "“Potentiation of MC4 receptor activity” (AMPLA Pharmaceuticals, Inc., priority 2006, published 2008)", "key": {"[1]": {"target": "T1, human Melonocortin-4 (MC4) receptor (Homo sapiens, UniProt P32245)", "T1 construct": "expressed in transfected cells; host or cells: HEK293 (ATCC), G418-selected, FACS-sorted clonal cMC4 line", "T1 sequence (P32245 whole entry)": "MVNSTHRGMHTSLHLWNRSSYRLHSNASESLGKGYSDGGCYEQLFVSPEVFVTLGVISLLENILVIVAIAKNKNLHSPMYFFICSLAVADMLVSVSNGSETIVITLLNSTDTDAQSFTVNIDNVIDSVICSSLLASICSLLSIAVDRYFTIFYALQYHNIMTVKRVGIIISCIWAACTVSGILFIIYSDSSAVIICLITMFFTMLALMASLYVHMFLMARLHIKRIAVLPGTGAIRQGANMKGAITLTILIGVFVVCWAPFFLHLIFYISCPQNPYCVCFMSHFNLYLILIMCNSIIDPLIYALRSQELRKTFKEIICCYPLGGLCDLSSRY", "experiment": "α-MSH dose-response, intracellular Ca2+ (Indo-1) flow cytometry (DSIS) in clonal MC4 cells, +/- compound", "assay_type": "cell-based", "conditions": "compound at a concentration of 1-10 μM", "method": "The cMC4 and Control Cells were plated 24-48 hours in advance, and were harvested with trypsin at ˜80% confluency. Cells were then centrifuged and resuspended two times in Hybridoma Media, the final time at a concentration of 1×10^6 cells/mL. Both cell lines were then loaded with 2 mM of Indo-1 plus 3 μg/mL Biotin-X DHPE and then were incubated for 1 hour on a rotator at room temperature. Cells were washed two times and resuspended at a concentration of 1×10^6 cells/mL in Hybridoma Media. The cMC4 cell line then got 2 μg/ml of Alexa 488-streptavidin (Invitrogen/Molecular Probes). Cells were incubated for an additional 30 minutes on a rocker at room temperature. […]\nThe probe-loaded cMC4 and Control cell mixture was placed in the Cell Suspension System on the DSIS where they were continuously rocked to keep them in a suspended state. […] The DSIS software, NVS Sampler, recorded a timing file and the CyAn software, Summit, recorded a data file. These two files were then compiled and analyzed by NVS Analyzer (see below) to determine the percent of cells that responded to each concentration. The data were transferred to GraphPAD Prism (GraphPad Software, San Diego, Calif.) for a non-linear regression curve fit that determined the EC50. […]\nWhen the screen was complete, the data files and the timing files were analyzed using NVS Analyzer. […]"}, "[2]": {"target": "T2, MC4 receptor (Homo sapiens, UniProt P32245)", "T2 sequence (P32245 whole entry)": "as above", "experiment": "ELISA-based cAMP assay in HEK293 cells stably expressing human MC4 receptors", "assay_type": "cell-based", "design": "expressed in transfected cells; host or cells: HEK293 stably expressing human MC4 receptor", "procedure": "ELISA-based cAMP assay was used to determine ligand-induced cAMP accumulation in HEK293 cells stably expressing human MC4 receptors in 96-well plate format. Compounds and cAMP standards were diluted in DMEM (without FBS and phenol red) containing 1 mM IBMX. Cells were plated in T-75 flasks and cultured for 24 h before use. Cells were removed from tissue culture flasks using enzyme-free cell dissociation buffer, washed and resuspended in DMEM (without FBS and phenol red) containing 1 mM IBMX at a density of 1×10^6 cells/ml. […] After incubation for 1 h, 50 μl of lysis buffer (0.5% NP-40 in TBS) was added, and incubated for 30 min. After adding rabbit anti-cAMP antibody (Sigma) diluted in TBST (TBS containing 0.05% Tween 20) (25 μl/well) and incubating for 30 min, 25 μl of cAMP-HRP conjugate dilution (in TBST) was added, and incubated for another 1 h. The plate was washed 6 times with TBST. To each well 200 μl of substrate (SuperSignal ELISA Pico Chemiluminesent substrate, Pierce, #37070) was added. The chemiluminescence activity was measured by a luminescence plate reader (NOVAstar, BMG Labtech). cAMP amount for each sample was estimated from cAMP standard curve."}, "[3]": {"target": "T2, MC4 receptor", "experiment": "Competition ligand binding assay with [125I]-NDP-α-MSH, HEK293 cell membranes", "design": "expressed in transfected cells; host or cells: HEK293 stably expressing human MC4 receptor", "procedure": "The binding was carried out at room temperature for another 2 h. […] Binding was terminated by addition of cold binding buffer and filtration on Whatman GF/B glass-fiber filters using a sampling manifold. The filters were washed 6 times with cold binding buffer and air-dried overnight. The radioactivity was quantified on a TopCounter after adding scintillation fluid. […] Data were analyzed by non-linear regression using program GraphPAD Prism (FIG. 5)."}, "[4]": {"tested_on": "diet-induced obese male C57BL/6J mice", "experiment": "28-day body weight and food intake study in diet-induced obese mice", "assay_type": "in vivo", "conditions": "day 29", "procedure": "Sibutramine, which is currently used clinically, and rimonabant, which has recently received regulatory approval for the management of obesity were used as reference compounds.\nC57BL/6J mice (7-8 weeks of age) were ordered from Charles River, Margate, Kent. Mice were group housed in polypropylene cages with free access to a high fat diet (D12451 45% of Kcal derived from fat; Research Diets, New Jersey, USA) and tap water at all times. Animals were maintained at 21±4° C. and 55±20% humidity on a normal phase 12 h light-dark cycle (lights on 04:30 h)\nAnimals were exposed to the high fat diet for 16 weeks. During this time body weight was recorded weekly. At the end of 14 weeks animals were singly housed in polypropylene cages for a further two week period (weeks 14-16) and placed on reverse phase lighting (lights off for 8 h from 9.30-17.30 h) during which time the room was illuminated by red light. Animals were dosed with vehicle orally throughout the baseline period. Body weight and food and water intake was recorded daily. Towards the end of the baseline period animals were allocated to groups. Upon completion of the baseline period, mice were dosed for 28 days with vehicle or test drug.\nBody weight and food and water intake were recorded daily. Following drug administration the animals were examined and any overt behavior was recorded. For all dosing, the morning session was timed such that approximately half the mice were dosed at the time of lights out (09:30).\nThe test compounds were dissolved in 1% methylcellulose. Drug solutions were made up fresh each day 1-2 h before dosing and were administered using a dose volume in the range of 1-3 ml/kg. Drug doses were expressed as free base.\nResulting body weights, food intake and water intake were expressed as mean values±SEM, and the SEMs are calculated from residuals of the statistical model. Body weight data was analysed by ANCOVA with Day 1 as covariate followed by appropriate comparisons (two-tailed) to determine significant differences from the control group. […] Daily food and water intake data was analysed by ANOVA."}, "[5]": {"target": "T2, MC4 receptor", "experiment": "Binding experiments with the MC4 receptor inverse agonist AgRP (FIG. 6)", "design": "expressed in transfected cells"}, "[6]": {"tested_on": "diet-induced obese male wild-type C57BL/6J mice", "experiment": "Food intake and body weight, diet-induced obese wild-type mice", "assay_type": "in vivo", "conditions": "40 mg/kg oral, day 2, wild-type", "procedure": "(§1) Mice were dosed at 40 mg/kg for two days with vehicle or test drug. Body weight and food and water intake were recorded daily.\n(§2) The test compound was ground while being diluted in 1% methylcellulose, and the final solution was sonicated to give a uniform suspension suitable for dosing. Drug solutions were made up fresh each day 1-2 h before dosing and were administered using a dose volume in the range of 1-3 ml/kg."}, "[7]": {"tested_on": "diet-induced obese male MC4 knockout C57BL/6J mice", "experiment": "Food intake and body weight, diet-induced obese MC4 knockout mice", "assay_type": "in vivo", "conditions": "40 mg/kg oral", "procedure": "as §1, §2"}, "[8]": {"target": "T2, MC4 receptor", "experiment": "Single-well kinetics of the αMSH response (FIGS. 9A-9E)", "assay_type": "cell-based", "design": "expressed in transfected cells", "procedure": "FIGS. 9A-9E show response kinetics from single-well assays. The response was initiated by αMSH with or without Compound 1. […] Whereas at 1 μM and 300 nM, αMSH onset and peak were increased and sustained. The onset and peak response increased with 3 μM and 10 μM concentrations of Compound 1 at all concentrations of αMSH."}}, "data": [{"compound": "Clc1ccc(N2CCN(Cc3c[nH]c4ncccc34)CC2)cc1", "note": "[Compound 2]", "values": [{"measurement": "shift in the EC50 of α-MSH", "setting": "[1]", "value": "left shift"}, {"measurement": "effect on the response of NDP-α-MSH", "setting": "[2]; cAMP accumulation", "value": "potentiate"}, {"measurement": "EC50", "setting": "[3]", "value": 252, "unit": "µM"}]}, {"compound": "CC(C)CC(N(C)C)C1(c2ccc(Cl)cc2)CCC1", "note": "(stereo not drawn) [Sibutramine]", "values": [{"measurement": "reduction of body weight", "setting": "[4]; 20 mg/kg oral", "value": 2, "unit": "%"}]}, {"compound": "OC1(c2ccc(Cl)cc2)CCN(Cc2c[nH]c3ccccc23)CC1", "note": "[Compound 1]", "values": [{"measurement": "dissociation of AgRP from the MC4 receptor", "setting": "[5]", "value": "increases the dissociation"}, {"measurement": "body weight as compared to vehicle", "setting": "[6]", "value": "statistically significant decrease"}, {"measurement": "reduction in food intake as compared to vehicle", "setting": "[6]", "value": "~40", "unit": "%"}, {"measurement": "body weight as compared to vehicle", "setting": "[7]", "value": "did not show a similar decrease"}, {"measurement": "reduction in food intake as compared to vehicle", "setting": "[7]", "value": "did not show a similar reduction"}, {"measurement": "shift in the EC50 of α-MSH", "setting": "[1]", "value": "left shift"}, {"measurement": "effect on AgRP activity", "setting": "[2]; FIG. 8, cAMP", "value": "attenuates"}, {"measurement": "effect on α-MSH activity", "setting": "[2]; FIG. 8, cAMP", "value": "potentiates"}, {"measurement": "EC50", "setting": "[3]", "value": 3.96, "unit": "µM"}, {"measurement": "onset and peak response to αMSH", "setting": "[8]; 3 μM and 10 μM Compound 1, all concentrations of αMSH", "value": "increased"}, {"measurement": "activity induced by the compound itself", "setting": "[8]; 10 μM Compound 1, 100 nM and 30 nM αMSH (FIG. 9E)", "value": "low level activity"}, {"measurement": "maximum peak response to αMSH", "setting": "[8]; low concentrations of Compound 1", "value": "did not appreciably increase"}]}, {"compound": "Cc1c(C(=O)NN2CCCCC2)nn(-c2ccc(Cl)cc2Cl)c1-c1ccc(Cl)cc1", "note": "[Rimonabant]", "values": [{"measurement": "reduction of body weight", "setting": "[4]; 10 mg/kg oral", "value": 15, "unit": "%"}, {"measurement": "weight reduction as compared to vehicle, significance", "setting": "[4]; 10 mg/kg oral", "value": "statistically significant weight reduction"}]}]}
